Like-named read-outs stand apart in the source and are kept apart here.
Columns and labels:
Assay type in all cases: binding
[1] = molecular target: T1, PBP4 of P. aeruginosa ATCC 27853 (Pseudomonas aeruginosa, UniProt Q9HZG1); test: competition with […]benzylpenicillin for PBPs; conditions: covalent; read-out: IC50 (μg/ml) / P. aeruginosa ATCC 27853 / Cefiderocol
T1 construct: gene PA3047

[2] = molecular target: T2, PBP1b of E. coli NIHJ JC-2 (Escherichia coli, UniProt P02919); test: competition with […]benzylpenicillin for PBPs; conditions: covalent
T2 construct: gene mrcB
T2 sequence (P02919 whole entry): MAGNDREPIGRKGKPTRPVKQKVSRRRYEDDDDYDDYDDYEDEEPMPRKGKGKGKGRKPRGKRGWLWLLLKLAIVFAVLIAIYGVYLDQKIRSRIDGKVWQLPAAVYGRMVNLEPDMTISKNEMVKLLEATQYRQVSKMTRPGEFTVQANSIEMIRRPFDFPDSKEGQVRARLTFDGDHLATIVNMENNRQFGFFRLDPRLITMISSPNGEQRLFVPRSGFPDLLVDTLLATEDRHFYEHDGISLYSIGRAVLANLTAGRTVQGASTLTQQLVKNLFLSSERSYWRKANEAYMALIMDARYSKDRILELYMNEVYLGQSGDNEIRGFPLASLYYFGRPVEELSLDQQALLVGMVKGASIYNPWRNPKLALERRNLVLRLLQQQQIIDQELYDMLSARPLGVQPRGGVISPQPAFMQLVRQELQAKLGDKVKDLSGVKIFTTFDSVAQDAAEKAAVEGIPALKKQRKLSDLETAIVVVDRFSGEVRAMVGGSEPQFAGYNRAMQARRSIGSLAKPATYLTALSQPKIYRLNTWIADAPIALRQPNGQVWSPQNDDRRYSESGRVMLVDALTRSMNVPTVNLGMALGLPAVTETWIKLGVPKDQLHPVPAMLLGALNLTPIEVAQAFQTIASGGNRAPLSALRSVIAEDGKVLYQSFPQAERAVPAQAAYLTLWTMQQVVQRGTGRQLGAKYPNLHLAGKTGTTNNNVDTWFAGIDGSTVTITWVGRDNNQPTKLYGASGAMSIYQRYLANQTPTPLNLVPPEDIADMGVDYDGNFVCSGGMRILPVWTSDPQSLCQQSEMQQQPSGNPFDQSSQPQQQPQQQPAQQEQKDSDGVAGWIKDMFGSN

[3] = molecular target: T3, PBP2 of E. coli NIHJ JC-2 (Escherichia coli, UniProt P0AD65); test: competition with […]benzylpenicillin for PBPs; conditions: covalent
T3 construct: gene mrdA
T3 sequence (P0AD65 1-633): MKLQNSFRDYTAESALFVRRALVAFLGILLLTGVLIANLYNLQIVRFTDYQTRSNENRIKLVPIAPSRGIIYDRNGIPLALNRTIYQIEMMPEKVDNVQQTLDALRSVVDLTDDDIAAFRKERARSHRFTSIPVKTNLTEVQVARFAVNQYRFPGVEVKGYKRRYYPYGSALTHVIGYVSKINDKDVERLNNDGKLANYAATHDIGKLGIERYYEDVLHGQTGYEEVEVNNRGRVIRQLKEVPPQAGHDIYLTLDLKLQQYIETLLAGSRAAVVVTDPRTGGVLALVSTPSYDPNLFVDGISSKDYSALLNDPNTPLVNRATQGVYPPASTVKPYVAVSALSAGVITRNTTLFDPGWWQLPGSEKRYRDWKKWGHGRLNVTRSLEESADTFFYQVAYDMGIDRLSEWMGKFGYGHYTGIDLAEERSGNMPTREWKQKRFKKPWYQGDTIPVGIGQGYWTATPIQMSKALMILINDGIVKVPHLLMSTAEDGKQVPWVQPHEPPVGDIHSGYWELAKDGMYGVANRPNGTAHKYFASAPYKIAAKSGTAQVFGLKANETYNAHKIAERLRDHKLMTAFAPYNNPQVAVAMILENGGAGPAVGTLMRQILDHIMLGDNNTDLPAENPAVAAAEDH

[4] = molecular target: T4, PBP3 of A. baumannii ATCC 17978 (Acinetobacter baumannii, UniProt A0ABX6CK25); test: competition with Bocillin FL for PBPs; conditions: covalent
T4 construct: gene ftsI
T4 sequence (A0ABX6CK25 1-610): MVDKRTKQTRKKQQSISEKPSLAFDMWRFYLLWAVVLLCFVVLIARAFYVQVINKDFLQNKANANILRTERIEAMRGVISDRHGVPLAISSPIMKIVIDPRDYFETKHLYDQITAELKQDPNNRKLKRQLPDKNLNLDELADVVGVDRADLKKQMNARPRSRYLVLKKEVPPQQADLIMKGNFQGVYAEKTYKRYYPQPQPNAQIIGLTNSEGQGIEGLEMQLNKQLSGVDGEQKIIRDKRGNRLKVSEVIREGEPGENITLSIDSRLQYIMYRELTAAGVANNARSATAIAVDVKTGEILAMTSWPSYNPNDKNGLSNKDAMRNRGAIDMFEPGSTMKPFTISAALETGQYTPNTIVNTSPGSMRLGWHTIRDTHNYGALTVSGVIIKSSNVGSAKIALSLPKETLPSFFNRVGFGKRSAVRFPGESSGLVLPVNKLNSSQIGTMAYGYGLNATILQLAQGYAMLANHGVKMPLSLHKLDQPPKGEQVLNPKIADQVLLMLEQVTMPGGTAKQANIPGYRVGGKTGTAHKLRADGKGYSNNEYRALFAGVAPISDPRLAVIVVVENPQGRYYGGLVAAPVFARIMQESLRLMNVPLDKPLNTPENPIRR
Excerpt: competition with Bocillin FL for PBPs on PBP3 of A. baumannii ATCC 17978

[5] = molecular target: T5, PBP1a of E. coli NIHJ JC-2 (Escherichia coli, UniProt P02918); test: competition with […]benzylpenicillin for PBPs; conditions: covalent
T5 construct: gene mrcA
T5 sequence (P02918 whole entry): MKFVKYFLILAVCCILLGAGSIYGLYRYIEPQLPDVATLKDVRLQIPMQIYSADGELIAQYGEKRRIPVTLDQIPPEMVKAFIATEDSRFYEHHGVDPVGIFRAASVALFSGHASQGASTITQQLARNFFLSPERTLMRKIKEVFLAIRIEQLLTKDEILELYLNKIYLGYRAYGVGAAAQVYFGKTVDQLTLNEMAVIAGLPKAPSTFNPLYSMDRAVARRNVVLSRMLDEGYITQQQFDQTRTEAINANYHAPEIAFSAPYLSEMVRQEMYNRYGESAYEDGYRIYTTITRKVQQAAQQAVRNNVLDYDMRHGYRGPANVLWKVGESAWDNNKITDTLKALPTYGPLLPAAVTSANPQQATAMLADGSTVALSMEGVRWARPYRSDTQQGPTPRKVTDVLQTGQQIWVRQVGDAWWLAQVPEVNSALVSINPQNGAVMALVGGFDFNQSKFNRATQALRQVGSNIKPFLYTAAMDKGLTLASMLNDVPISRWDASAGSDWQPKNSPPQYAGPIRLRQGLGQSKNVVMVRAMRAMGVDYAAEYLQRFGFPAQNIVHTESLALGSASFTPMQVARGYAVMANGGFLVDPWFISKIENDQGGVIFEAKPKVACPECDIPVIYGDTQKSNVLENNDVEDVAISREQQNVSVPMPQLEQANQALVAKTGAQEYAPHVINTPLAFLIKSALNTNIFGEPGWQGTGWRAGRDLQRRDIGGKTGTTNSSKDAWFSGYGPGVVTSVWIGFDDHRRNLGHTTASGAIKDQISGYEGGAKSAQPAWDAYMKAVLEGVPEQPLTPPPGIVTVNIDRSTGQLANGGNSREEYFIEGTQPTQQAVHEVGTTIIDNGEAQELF

[6] = molecular target: T6, PBP3 of E. coli NIHJ JC-2 (Escherichia coli, UniProt P0AD68); test: competition with […]benzylpenicillin for PBPs; conditions: covalent
T6 construct: gene ftsI
T6 sequence (P0AD68 1-577): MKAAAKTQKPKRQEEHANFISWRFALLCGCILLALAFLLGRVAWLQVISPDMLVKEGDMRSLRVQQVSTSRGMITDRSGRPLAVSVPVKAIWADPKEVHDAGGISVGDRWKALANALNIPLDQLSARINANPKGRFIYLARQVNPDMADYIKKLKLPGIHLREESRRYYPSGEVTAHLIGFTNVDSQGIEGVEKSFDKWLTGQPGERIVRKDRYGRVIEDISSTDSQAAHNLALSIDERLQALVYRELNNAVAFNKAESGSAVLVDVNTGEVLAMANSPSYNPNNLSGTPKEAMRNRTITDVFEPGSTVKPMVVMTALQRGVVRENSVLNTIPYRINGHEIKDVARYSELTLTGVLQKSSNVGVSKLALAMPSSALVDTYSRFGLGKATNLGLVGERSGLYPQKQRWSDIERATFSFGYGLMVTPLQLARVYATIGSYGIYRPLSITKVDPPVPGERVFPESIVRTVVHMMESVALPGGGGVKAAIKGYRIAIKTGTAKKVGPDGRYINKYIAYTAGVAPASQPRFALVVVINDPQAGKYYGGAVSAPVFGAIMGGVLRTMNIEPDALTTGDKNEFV

[7] = molecular target: T7, PBP4 of K. pneumoniae SR22291 (Klebsiella pneumoniae, UniProt A6TEK1); test: competition with […]benzylpenicillin for PBPs; conditions: covalent
T7 construct: gene dacB
T7 sequence (A6TEK1 21-477): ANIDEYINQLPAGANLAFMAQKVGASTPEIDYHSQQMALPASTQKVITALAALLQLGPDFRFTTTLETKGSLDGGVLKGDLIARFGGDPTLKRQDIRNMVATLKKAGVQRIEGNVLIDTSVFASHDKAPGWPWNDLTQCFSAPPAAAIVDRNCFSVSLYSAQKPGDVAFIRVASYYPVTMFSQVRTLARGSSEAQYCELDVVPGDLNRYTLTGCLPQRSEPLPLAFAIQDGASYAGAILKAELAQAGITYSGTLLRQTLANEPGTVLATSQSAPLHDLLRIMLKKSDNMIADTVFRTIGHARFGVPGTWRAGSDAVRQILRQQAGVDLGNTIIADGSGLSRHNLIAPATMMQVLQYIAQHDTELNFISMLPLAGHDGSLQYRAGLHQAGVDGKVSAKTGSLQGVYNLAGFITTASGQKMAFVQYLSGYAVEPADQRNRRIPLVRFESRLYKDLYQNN

[8] = molecular target: T8, PBP1a of P. aeruginosa ATCC 27853 (Pseudomonas aeruginosa, UniProt Q07806); test: competition with […]benzylpenicillin for PBPs; conditions: covalent
T8 construct: gene mrcA
T8 sequence (Q07806 whole entry): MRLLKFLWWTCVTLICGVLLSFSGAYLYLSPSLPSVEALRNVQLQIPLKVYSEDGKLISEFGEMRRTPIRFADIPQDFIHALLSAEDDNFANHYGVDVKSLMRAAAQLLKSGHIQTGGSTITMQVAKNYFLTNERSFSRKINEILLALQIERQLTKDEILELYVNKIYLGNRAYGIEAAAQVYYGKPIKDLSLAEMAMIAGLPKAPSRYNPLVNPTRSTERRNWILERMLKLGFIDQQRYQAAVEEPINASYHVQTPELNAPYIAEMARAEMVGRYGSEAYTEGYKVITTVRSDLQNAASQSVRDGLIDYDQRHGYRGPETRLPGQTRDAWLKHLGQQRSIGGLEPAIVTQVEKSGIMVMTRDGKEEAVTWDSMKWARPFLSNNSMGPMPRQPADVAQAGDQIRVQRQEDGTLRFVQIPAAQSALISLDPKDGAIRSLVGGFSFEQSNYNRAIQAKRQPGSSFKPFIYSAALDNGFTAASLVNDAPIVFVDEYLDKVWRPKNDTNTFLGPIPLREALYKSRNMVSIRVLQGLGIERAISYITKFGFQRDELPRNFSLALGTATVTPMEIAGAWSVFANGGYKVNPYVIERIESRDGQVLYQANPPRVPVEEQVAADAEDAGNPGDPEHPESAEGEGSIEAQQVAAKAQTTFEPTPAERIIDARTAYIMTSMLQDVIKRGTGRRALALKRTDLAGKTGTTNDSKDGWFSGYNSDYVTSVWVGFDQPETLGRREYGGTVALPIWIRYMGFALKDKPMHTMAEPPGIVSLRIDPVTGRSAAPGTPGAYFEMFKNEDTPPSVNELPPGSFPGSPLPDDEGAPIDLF

[9] = read-out: IC50 (μg/ml) / E. coli NIHJ JC-2 / Cefiderocol (converted)
[10] = read-out: IC50 (μg/ml) / E. coli NIHJ JC-2 / Ceftazidime

T1 sequence (Q9HZG1 entry or part of it): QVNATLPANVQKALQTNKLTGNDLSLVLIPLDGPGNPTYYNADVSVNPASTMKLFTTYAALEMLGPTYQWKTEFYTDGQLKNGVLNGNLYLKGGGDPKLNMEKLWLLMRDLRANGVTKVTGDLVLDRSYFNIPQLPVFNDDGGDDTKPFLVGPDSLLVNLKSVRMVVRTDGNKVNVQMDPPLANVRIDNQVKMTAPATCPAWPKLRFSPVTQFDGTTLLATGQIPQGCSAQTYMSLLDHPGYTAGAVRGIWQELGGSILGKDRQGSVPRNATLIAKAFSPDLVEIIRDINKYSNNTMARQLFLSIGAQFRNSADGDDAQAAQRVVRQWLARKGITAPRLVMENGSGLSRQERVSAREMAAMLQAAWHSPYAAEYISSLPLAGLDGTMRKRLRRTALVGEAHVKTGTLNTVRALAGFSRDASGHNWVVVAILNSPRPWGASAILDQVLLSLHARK

Row | Structure (SMILES) | IC50 [1] [µM] | IC50 [2, 9] [µM] | IC50 [3, 9] [µM] | IC50 ([4]; read-out: IC50 (μg/ml) / A. baumannii ATCC 17978 ^a / Cefiderocol (converted)) [µM] | IC50 [5, 9] [µM] | IC50 [6, 9] [µM] | IC50 ([7]; read-out: IC50 (μg/ml) / K. pneumoniae SR22291 / Cefiderocol (converted)) [µM] | IC50 ([8]; read-out: IC50 (μg/ml) / P. aeruginosa ATCC 27853 / Cefiderocol (converted)) [µM] | IC50 [2, 10] [µM] | IC50 [3, 10] [µM] | IC50 ([4]; read-out: IC50 (μg/ml) / A. baumannii ATCC 17978 ^a / Ceftazidime (converted)) [µM] | IC50 [5, 10] [µM] | IC50 ([6]; read-out: IC50 (μg/ml) / E. coli NIHJ JC-2 / Ceftazidime (converted)) [µM] | IC50 ([7]; read-out: IC50 (μg/ml) / K. pneumoniae SR22291 / Ceftazidime (converted)) [µM] | IC50 ([8]; read-out: IC50 (μg/ml) / P. aeruginosa ATCC 27853 / Ceftazidime (converted)) [µM]
1 | CC(C)(O/N=C(\C(=O)N[C@@H]1C(=O)N2C(C(=O)[O-])=C(C[N+]3(CCNC(=O)c4ccc(O)c(O)c4Cl)CCCC3)CS[C@H]12)c1csc(N)n1)C(=O)O [cefiderocol] | > 5.32 | 4.48 | 2.82 | 0.891 | 5.05 | 0.0532 | 0.372 | 1.13 | – | – | – | – | – | – | –
2 | CC(C)(O/N=C(\C(=O)N[C@@H]1C(=O)N2C(C(=O)[O-])=C(C[n+]3ccccc3)CS[C@H]12)c1csc(N)n1)C(=O)O [ceftazidime] | > 7.32 | – | – | – | – | – | – | – | > 7.32 | > 7.32 | 3.26 | > 7.32 | 0.823 | 6.59 | 6.62

From paper PMC5740388, “In Vitro Antibacterial Properties of Cefiderocol, a Novel Siderophore Cephalosporin, against Gram-Negative Bacteria” (Antimicrobial Agents and Chemotherapy, 2017)
